Data on six compounds can be found in patent publication US8927500B2, “Peptidomimetic macrocycles” (Aileron Therapeutics, Inc., priority 2012, dated 2015).

Read-outs that look alike come from different tables or passages of the source. Where a SMILES comes first, the peptide text is derived from it. Bridges are numbered along the chain shown (N, C = ends). [ ]: non-standard residue; d: D form. R8 = C=CCCCCCC[C@@](C)(N)C(=O)O; Cba = N[C@@H](CC1CCC1)C(=O)O; S5 = C=CCCC[C@](C)(N)C(=O)O

Experiment [1] has as its target T1, MDMX (Homo sapiens, UniProt O15151).
T1 sequence (O15151 1-125): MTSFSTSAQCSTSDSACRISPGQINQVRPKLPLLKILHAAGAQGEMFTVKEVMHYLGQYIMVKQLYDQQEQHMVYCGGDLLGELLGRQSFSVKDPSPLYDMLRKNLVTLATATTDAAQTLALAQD
The experiment can be described thus: Competitive fluorescence polarization assay for MDMX. As to conditions: competitive FP assay; for IC50: read-out: IC50 (MDMX); for Ki: read-out: Ki (MDMX). It counts as binding. (In general: In fluorescence polarisation assays a small probe gives low polarisation when free and higher when bound to something large.)

Experiment [2] deals with MDM2 (Homo sapiens, UniProt Q00987). The experiment can be described thus: Competitive fluorescence polarization assay for MDM2. As to conditions: competitive FP assay, MDM2; for IC50: read-out: IC50 (MDM2). The experiment is classed as binding.
MDM2, sequence (Q00987 1-125): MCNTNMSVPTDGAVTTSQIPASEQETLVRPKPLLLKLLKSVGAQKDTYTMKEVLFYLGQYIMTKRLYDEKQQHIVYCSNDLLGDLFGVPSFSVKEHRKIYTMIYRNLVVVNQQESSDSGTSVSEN

The IC50 is the concentration that gives 50% inhibition. Broadly, the Ki is the equilibrium dissociation constant of an inhibitor or competing ligand from its target. Take `CCCC[C@H](NC(=O)[C@H](C)NC(=O)[C@H](C)NC(=O)[C@]1(C)CCCC=CCCCCCC[C@@](C)(NC(=O)[C@H](Cc2ccccc2)NC(=O)[C@@H](NC(=O)[C@H](CC(C)C)NC(C)=O)[C@@H](C)O)C(=O)N[C@@H](C)C(=O)N[C@@H](Cc2ccc(O)cc2)C(=O)N[C@@H](Cc2c[nH]c3ccccc23)C(=O)N[C@@H](C)C(=O)N[C@@H](CCC(N)=O)C(=O)N[C@@H](CC(C)C)C(=O)N1)C(=O)N[C@@H](C)C(N)=O` (single isomer, unassigned) [compound 68]: the 50% inhibitory concentration (IC50) in experiment [1] and in experiment [2] was 100 to 1000 nM each time. For the same compound, the Ki in experiment [1] and in experiment [2] (read-out: Ki (MDM2)) was 10 to 100 nM each time.

Consider `CCCC[C@H](NC(=O)[C@H](C)NC(=O)[C@H](C)NC(=O)[C@]1(C)CCCC=CCCCCCC[C@@](C)(NC(=O)[C@H](Cc2ccccc2)NC(=O)[C@@H](NC(=O)[C@H](CC(C)C)NC(C)=O)[C@@H](C)O)C(=O)N[C@@H](C)C(=O)N[C@@H](Cc2ccc(O)cc2)C(=O)N[C@@H](Cc2c[nH]c3ccccc23)C(=O)N[C@@H](C)C(=O)N[C@@H](CCC(N)=O)C(=O)N[C@@H](CC(C)C)C(=O)N1)C(=O)N[C@H](CC(C)C)C(N)=O` (single isomer, unassigned) [compound 85], for which the IC50 in experiment [1] lay within 100 to 1000 nM; in experiment [2] it was 10 to 100 nM. Besides, the Ki in experiment [1] was 10 to 100 nM; in experiment [2] (read-out: Ki (MDM2)) it was under 10 nM.

Take `CC(=O)N[C@@H](CC(C)C)C(=O)N[C@H](C(=O)N[C@@H](Cc1ccccc1)C(=O)N[C@]1(C)CCCCCCC=CCCC[C@@](C)(C(=O)N[C@@H](C)C(=O)N[C@@H](C)C(=O)N[C@@H](C)C(=O)N[C@@H](C)C(=O)NC(C)(C)C(=O)N[C@H](C)C(N)=O)NC(=O)[C@H](CC(C)C)NC(=O)[C@H](CCC(N)=O)NC(=O)[C@H](C)NC(=O)[C@H](Cc2c[nH]c3ccccc23)NC(=O)[C@H](Cc2ccc(O)cc2)NC(=O)[C@H](CCC(=O)O)NC1=O)[C@@H](C)O` (single isomer, unassigned) [compound 565]: the inhibition constant Ki in experiment [2] (read-out: Ki (MDM2)) was 10 to 100 nM.

With `CC(=O)N[C@@H](CC(C)C)C(=O)N[C@H](C(=O)N[C@@H](Cc1ccccc1)C(=O)N[C@]1(C)CCCCCCC=CCCC[C@@](C)(C(=O)N[C@@H](C)C(=O)N[C@@H](C)C(=O)N[C@@H](C)C(=O)N[C@@H](C)C(=O)NC(C)(C)C(=O)N[C@H](C)C(N)=O)NC(=O)[C@H](CC(C)C)NC(=O)[C@H](CCC(N)=O)NC(=O)[C@H](C)NC(=O)[C@H](Cc2c[nH]c3ccccc23)NC(=O)[C@H](Cc2ccc(O)cc2)NC(=O)[C@H](CCC(=O)O)NC1=O)[C@@H](C)O` (single isomer, unassigned) [compound 566], the Ki in experiment [2] (read-out: Ki (MDM2)) is under 10 nM.

As to `CC(=O)N[C@@H](CC(C)C)C(=O)N[C@H](C(=O)N[C@@H](Cc1ccccc1)C(=O)N[C@]1(C)CCCCCCC=CCCC[C@@](C)(C(=O)N[C@H](C)C(N)=O)NC(=O)[C@H](CC(C)C)NC(=O)[C@H](CCC(N)=O)NC(=O)[C@H](C)NC(=O)[C@H](Cc2c[nH]c3ccccc23)NC(=O)[C@H](Cc2ccc(O)cc2)NC(=O)[C@H](CCC(=O)O)NC1=O)[C@@H](C)O` [compound 589] (Ac-LTF[R8]EYWAQL[S5][dA]-NH2; staple 4-11), in experiment [2] (Ki (MDM2)), the Ki is under 10 nM.

Take `CC(=O)N[C@@H](CC(C)C)C(=O)N[C@H](C(=O)N[C@@H](Cc1ccccc1)C(=O)N[C@]1(C)CCCCCCC=CCCC[C@@](C)(C(=O)N[C@@H](CO)C(N)=O)NC(=O)[C@H](CC2CCC2)NC(=O)[C@H](CCC(N)=O)NC(=O)[C@H](C)NC(=O)[C@H](Cc2c[nH]c3ccccc23)NC(=O)[C@H](Cc2ccc(O)cc2)NC(=O)[C@H](CCC(=O)O)NC1=O)[C@@H](C)O` [compound 595] (Ac-LTF[R8]EYWAQ[Cba][S5]S-NH2; staple 4-11): the inhibition constant (Ki) in experiment [2] (read-out: Ki (MDM2)) is over 1000 nM.
